Experimental findings from US20170260186A1, “PROCESS OF PREPARING AMORPHOUS FORM OF IDELALISIB” (ScinoPharm Taiwan, Ltd., priority 2016, published 2017) are described below.

Series [1] is described as follows: Dynamic Vapor Sorption (DVS) water-solid interaction. In kind it is physicochemical. The protocol:
Dynamic Vapor Sorption (DVS) The sample was placed into the DVS sample pan and dried under a stream of dry nitrogen at 25° C. with 0% RH. The moisture was gradually introduced into the system with a 10% RH increment up to 90% RH and the humidity was then decreased in a similar trend for desorption phase. The sorption and desorption data were collected with equilibration set to dm/dt 0.004%/min for 5 min/step. The minimum and maximum time for each step were set to 10 and 360 min. Two sorption/desorption cycles were performed.

Series [2] can be described thus: preliminary physicochemical stability study in recommended packaging. Conditions: 3 months. The protocol: The double packed LDPE bag was then placed inside an aluminum foil bag with appropriate amount of desiccant between the LDPE bag and the aluminum foil bag. The aluminum bag package was then placed in a High-Density PolyEthylene (HDPE) container and stored at temperature below 25° C.

The mark [3] stands for this setting: accelerated condition 40° C./75% RH.
The mark [4] stands for this setting: long term storage condition 25° C./60% RH.

As for `CC[C@H](Nc1ncnc2nc[nH]c12)c1nc2cccc(F)c2c(=O)n1-c1ccccc1` [amorphous idelalisib, (S)-2-(1-(9H-purin-6-ylamino)propyl)-5-fluoro-3-phenylquinazolin-4(3H)-one], the “hygroscopicity (DVS result)” value in series [1] (DVS isotherm, FIG. 4) is on record as “hygroscopic material”. For the same molecule, in series [1] (DVS, humidity changing from 0% RH to 90% RH, 25° C.), the moisture uptake entry is “approximately 8.9%”. In series [2] (setting [3]), the solid form result is on record as “remained as amorphous” and the water content change result is on record as “not increased”. Also, in series [2] (setting [4]), the solid form entry is “remained as amorphous” and the water content change entry is listed as “not increased”.
